We go through 11 molecules from patent US11203601B2, “Tricyclic compounds as glycogen synthase kinase 3 (GSK3) inhibitors and uses thereof” (The Broad Institute, Inc., priority 2017, dated 2021).

A short description of data set [1]: Liver microsomal stability, human. Format: in vitro ADME. On the procedure:
(§1) Stability of compound in liver microsomes was tested in duplicate by incubating compound at 1 μM for 60 minutes at 37° C. Compound level at 60 minutes was compared to level at 0 minutes, and percent remaining was calculated. Order by selecting Microsomal Stability in Prometheus, checking boxes for desired species.
(§2) Available species: human, mouse (CD-1), and rat (Sprague-Dawley). Compound requirements: 5 μL of a 10 mM DMSO solution. Incubation time: 60 minutes at 37° C. Test Concentration: 1 μM.
(§3) Microsomes with NADPH without compound-matrix interference. Microsomes plus compound without NADPH-non-enzymatic instability.
(Liver microsomes are a subcellular fraction often used to study metabolism.)

Data set [2] can be described thus: Plasma protein binding (RED), human. Format: in vitro ADME. The conditions noted are these: 5 hours at 37° C., read-out: Plasma Protein Binding (Human, % bound) (converted). The method, then: (§4) Stability of compound in plasma was tested in duplicate by incubating compound at 5 μM for 5 hours at 37° C. Compound level at 5 hours was compared to level at 0 hours, and percent remaining was calculated. Binding to plasma proteins was tested in duplicate by incubating compound in plasma at 5 μM for 5 hours at 37° C. in the Rapid Equilibrium Dialysis (RED) Device. Compound level in plasma compartment was compared to compound level in buffer compartment to calculate percent bound. Order by selecting Plasma Stability and Plasma Protein Binding in Prometheus, checking boxes for desired species.
(§5) Available species: human, mouse (CD-1), and rat (Sprague-Dawley). Compound requirements: 15 μL of a 10 mM DMSO solution. Incubation time: 5 hours at 37° C. Test Concentration: 5 μM.

The nature of data set [3]: Plasma protein binding (RED), mouse. Format: in vitro ADME, mouse (CD-1). The conditions noted are these: CD-1, 5 hours at 37° C., read-out: Plasma Protein Binding (Mouse, % bound) (converted).
Data set [4] is described as follows: Plasma stability, mouse. In kind it is in vitro ADME, mouse (CD-1). On the procedure: as §4, §5
The nature of data set [5]: Plasma stability, human. In kind it is in vitro ADME. The method, then: as §4, §5
Data set [6] in a line: Solubility in PBS. The conditions noted are these: 23 °C, aqueous buffer, thermodynamic from solid.
Method: (§6) Solubility of compound was tested in triplicate by diluting a 10 mM DMSO solution with PBS. Maximum concentration of compound in solution was 100 μM.
(§7) Solubility of compound was tested in triplicate by drying down a 10 mM DMSO solution and then attempting to reconstitute in 100% PBS. Maximum concentration of compound in solution was 500 μM.
(§8) Compound requirements (1% DMSO in PBS): 30 μL of a 10 mM DMSO solution. Compound requirements (PBS-only): 60 μL of a 10 mM DMSO solution. Equilibration time: 18 hours at room temperature.
Data set [7] can be described thus: Liver microsomal stability, mouse. In kind it is in vitro ADME, mouse (CD-1). On the procedure:
as §1, §2, §3

For data set [8], the target named is GSK3β (Homo sapiens (Human), UniProt P49841). Nature of the data set: GSK3 beta biochemical assay (TR-FRET). The conditions noted are these: GSK3β TR-FRET BIOCHEMICAL (TR-FRET) GMean IC50, 2 μM ATP (Km), 100 min at room temperature. For orientation: In TR-FRET formats the signal depends on donor and acceptor labels being close together.
Method: (§9) 1 nM enzyme, 200 nM biotinylated peptide
(§10) 4 μM ATP (GSK3 alpha) or 2 μM ATP (GSK3 beta)
(§11) The reaction volume is 10 μL, and the final percent DMSO is 1%. The total volume of DMSO is therefore 100 nL. It is critical that the percentage of DMSO be controlled and consistent across the plate. […] The High control is with all assay components but no inhibitor, the low control is with all assay components but no enzyme.
(§12) Make 2× detection reagents in Invitrogen TR-FRET detection buffer for final 20 nM Strepavidin-d2, 1 nM Tb^2+-pSer641 antibody (using 20 μl as final volume). 2× detection=40 nM Strepavidin-d2, 2 nM Tb^2+-pSer641 antibody.
(§13) XLFit is used for results which are archived into a database. The data is normalized as a percentage of uninhibited control minus max inhibited controls.
For data set [9], the system named is MDR1. In words: Additional MDCK permeability (MDR1-MDCK) assay (Example 6). The conditions noted are these: dog. Format: in vitro ADME.
From the text: The MDR1/MDCK assay is run at Absorption Systems. This assay is used to determine the blood-brain barrier (BBB) penetration potential of a test compound using MDR1-MDCK cell monolayers.
Assay System • Confluent monolayers of MDR1-MDCK cells, 7 to 11 days old. Assay Conditions • Receiver well with 1% BSA in modified Hanks buffer (HBSSg) • Apical and basolateral side at pH 7.4 • Dose two monolayers in each direction (N=2) • Dose apical side for (A to B) assessment • Dose basolateral side for (B to A) assessment • Sample both apical and basolateral sides at 120 minutes • Determine the concentrations of test compound using a generic LC-MS/MS method with a minimum 4 point calibration curve. Assay QC • The quality of the cell monolayer batch is verified using control compounds before monolayers are released for use • The quality of each monolayer used in the assay is verified by a TEER measurement and by calculating the Papp for a control compound.
Data set [10] has as its target GSK3α (Homo sapiens (Human), UniProt P49840). In words: GSK3 alpha biochemical assay (TR-FRET). The conditions noted are these: GSK3α TR-FRET BIOCHEMICAL (TR-FRET) GMean IC50, 4 μM ATP (Km), 100 min at room temperature.
Method: as §9, §10, §11, §12, §13
Data set [11] has as its system oxidative stress-induced neurodegeneration. The conditions noted are these: cited from earlier work.
In data set [12] the test system is Δ7 SMA KO mouse model of SMA. The conditions noted are these: transgenic Δ7 SMA KO mouse model; cited from earlier work.
For data set [13], the system named is SMA patient-derived fibroblast cells. The conditions noted are these: Western blot; cited from earlier work. (In general: Immunoblotting shows a protein as a band on a membrane.)
In data set [14] the test system is GSK3. The conditions noted are these: cited from earlier work.
The nature of data set [15]: physchem. The conditions noted are these: 23 °C, aqueous buffer, thermodynamic from solid.
Method: as §6, §7, §8
[16] abbreviates: mouse plasma, 5 μM, 5 hours at 37° C.
Where [17] appears, read: human plasma, 5 μM, 5 hours at 37° C.

Converted amounts (≈) assume the structure as drawn. Read-outs that look alike come from different tables or passages of the source.

GSK3α, sequence (P49840 whole entry): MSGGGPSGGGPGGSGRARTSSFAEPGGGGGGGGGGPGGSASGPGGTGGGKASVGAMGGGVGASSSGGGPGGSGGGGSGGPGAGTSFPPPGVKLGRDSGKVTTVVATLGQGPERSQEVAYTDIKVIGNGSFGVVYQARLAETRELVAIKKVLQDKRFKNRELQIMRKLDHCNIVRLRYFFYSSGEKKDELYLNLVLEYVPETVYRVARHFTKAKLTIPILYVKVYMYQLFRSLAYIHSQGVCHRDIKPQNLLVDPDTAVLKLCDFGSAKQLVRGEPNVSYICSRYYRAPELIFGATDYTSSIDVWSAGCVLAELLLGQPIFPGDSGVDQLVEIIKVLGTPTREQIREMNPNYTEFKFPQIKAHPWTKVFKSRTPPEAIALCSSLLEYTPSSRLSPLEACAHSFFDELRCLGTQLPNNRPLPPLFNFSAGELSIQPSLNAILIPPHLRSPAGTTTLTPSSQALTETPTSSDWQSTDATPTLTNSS
GSK3β, sequence (P49841 whole entry): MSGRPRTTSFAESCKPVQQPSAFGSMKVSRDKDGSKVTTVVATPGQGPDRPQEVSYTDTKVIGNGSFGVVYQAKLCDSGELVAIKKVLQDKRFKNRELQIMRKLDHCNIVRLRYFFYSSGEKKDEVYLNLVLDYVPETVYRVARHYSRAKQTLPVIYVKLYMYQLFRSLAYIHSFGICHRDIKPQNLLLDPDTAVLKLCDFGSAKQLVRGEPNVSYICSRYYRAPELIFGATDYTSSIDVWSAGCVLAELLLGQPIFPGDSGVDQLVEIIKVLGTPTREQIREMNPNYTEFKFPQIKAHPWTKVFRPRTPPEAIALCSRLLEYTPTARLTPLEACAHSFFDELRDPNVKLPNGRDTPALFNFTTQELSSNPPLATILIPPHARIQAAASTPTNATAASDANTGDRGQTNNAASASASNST

As to `CC[C@@]1(c2cccc(Cl)c2)C2=C(CC(C)(C)CC2=O)Nc2ncsc21`, the “Human Liver Microsomal Stability, % remaining” value in data set [1] (1 μM, 60 minutes at 37° C.) amounted to 0.0%. The fraction unbound at 5 h, 5 μM was 0.018 in [2] and 0.023 in data set [3]. In [4] (setting [16]), the “Plasma Stability (Mouse, % remaining)” value worked out at 98.1%. Also, the “Plasma Stability (Human, % remaining)” value in data set [5] (setting [17]) worked out at 98.7%. Moreover, the solubility (thermodynamic) – broadly, the concentration in solution at equilibrium with solid – at 18 h in data set [6] amounted to 37 µM (≈ 13.8 µg/mL). Further, in [7] (1 μM, 60 minutes at 37° C.), the “Mouse Liver Microsomal Stability, % remaining” value was determined as 11.1%.
As to `CC[C@@]1(c2cccc(OC)c2)C2=C(CC(C)(C)CC2=O)Nc2ncsc21`, the “Human Liver Microsomal Stability, % remaining” value in [1] (1 μM, 60 minutes at 37° C.) is 1.6%. Besides, the results for the fraction unbound at 5 h, 5 μM in data set [2] and in [3] were 0.025 and 0.077, respectively. The “Plasma Stability (Mouse, % remaining)” value in [4] (setting [16]) was found to be 97.0%. The “Plasma Stability (Human, % remaining)” value in data set [5] (setting [17]) stood at 98.3%. The thermodynamic solubility at 18 h in data set [6] was 153 µM (≈ 56.4 µg/mL). In data set [7] (1 μM, 60 minutes at 37° C.), the “Mouse Liver Microsomal Stability, % remaining” value was 10.8%.
Turning to `CCC1(c2ccccc2)C2=C(CC(C)(C)CC2=O)Nc2ncsc21` (single isomer, unassigned) [Compound 1-E2, 9-Ethyl-6,6-dimethyl-9-phenyl-5,6,7,9-tetrahydrothiazolo[4,5-b]quinolin-8(4H)-one], the half-maximal inhibitory concentration (IC50) (as a rule, the point on the concentration scale where inhibition reaches its midpoint) in data set [8] is 0.19 µM; in data set [10] it was 0.037 µM. For the same molecule, the apparent permeability from apical to basolateral (Papp A→B) (as a rule, how fast a substance crosses the layer from the apical side) at 120 min, 5 μM in data set [9] is 7.67 ×10⁻⁶ cm/s. Moreover, the Papp B→A (usually the apparent permeability from the basolateral to the apical side of a cell layer) at 120 min, 5 μM in data set [9] stood at 24.4 ×10⁻⁶ cm/s. The efflux ratio at 120 min, 5 μM in data set [9] (read-out: MDCK PERMEABILITY (MDR1-MDCK) Mean P. Ratio(B-A/A-B)) turned out to be 3.2.
Regarding `Cn1cc(C2=C(c3coc4ccccc34)C(=O)NC2=O)c2cc(Br)ccc21` [BIP-135], in [11], the neuroprotection entry is “neuroprotective”. In addition, the “median survival of the mice” value in data set [12] is reported as “prolong the median survival of the mice”. In addition, in [13], the SMN protein level result is reported as “elevate the SMN protein level”.
As for `[Li+]` [Li^+, Lithium], the IC50 in data set [14] was 2000 µM.
Turning to `CC1(C)CC(=O)C2=C(C1)Nc1ncsc1[C@]2(C)c1ccccc1` [drawing 172], the “Human Liver Microsomal Stability, % remaining” value in [1] (1 μM, 60 minutes at 37° C.) stood at 17.7%. In addition, the fraction unbound at 5 h, 5 μM is 0.005 in data set [2] and 0.004 in data set [3]. For the same molecule, the “Plasma Stability (Mouse, % remaining)” value in data set [4] (setting [16]) came to 100%. For the same molecule, the “Plasma Stability (Human, % remaining)” value in data set [5] (setting [17]) was determined as 100%. In data set [6], this molecule showed a thermodynamic solubility at 18 h of 34 µM (≈ 11 µg/mL). Also, the “Mouse Liver Microsomal Stability, % remaining” value in data set [7] (1 μM, 60 minutes at 37° C.) is 0.7%.
On to `CC[C@@]1(c2ccccc2)C2=C(CC(C)(C)CC2=O)Nc2ncsc21` [drawing 173], for which the “Human Liver Microsomal Stability, % remaining” value in [1] (1 μM, 60 minutes at 37° C.) was found to be 6.6%. Also, the results for the fraction unbound at 5 h, 5 μM in data set [2] and in [3] were 0.049 and 0.074, respectively. The “Plasma Stability (Mouse, % remaining)” value in data set [4] (setting [16]) is recorded as 100%. Besides, in [5] (setting [17]), the “Plasma Stability (Human, % remaining)” value is 100%. Further, the solubility (thermodynamic) at 18 h in data set [6] is 17 µM (≈ 5.75 µg/mL). For the same molecule, the “Mouse Liver Microsomal Stability, % remaining” value in [7] (1 μM, 60 minutes at 37° C.) was determined as 5.6%.
On to `CC[C@@]1(c2cccc(F)c2)C2=C(CC(C)(C)CC2=O)Nc2ncsc21` [drawing 174], for which the “Human Liver Microsomal Stability, % remaining” value in data set [1] (1 μM, 60 minutes at 37° C.) turned out to be 2.4%. Besides, the values for the fraction unbound at 5 h, 5 μM in data set [2] and in [3] were 0.029 and 0.043, respectively. Besides, in data set [4] (setting [16]), the “Plasma Stability (Mouse, % remaining)” value was 96.0%. Besides, in data set [5] (setting [17]), the “Plasma Stability (Human, % remaining)” value is recorded as 99.2%. The molecule further returned a thermodynamic solubility at 18 h in data set [6] of 100 µM (≈ 35.6 µg/mL). In addition, the “Mouse Liver Microsomal Stability, % remaining” value in [7] (1 μM, 60 minutes at 37° C.) is given as 3.9%.
Take `CC[C@@]1(c2cccc(C)c2)C2=C(CC(C)(C)CC2=O)Nc2ncsc21` [drawing 176]: the “Human Liver Microsomal Stability, % remaining” value in data set [1] (1 μM, 60 minutes at 37° C.) was found to be 0.7%. Moreover, the fraction unbound at 5 h, 5 μM was 0.019 in [2] and 0.045 in [3]. Besides, the “Plasma Stability (Mouse, % remaining)” value in [4] (setting [16]) was 97.8%. Besides, the “Plasma Stability (Human, % remaining)” value in data set [5] (setting [17]) is given as 98.9%. This molecule returned a thermodynamic solubility at 18 h in data set [6] of 75 µM (≈ 26.4 µg/mL). Moreover, the “Mouse Liver Microsomal Stability, % remaining” value in data set [7] (1 μM, 60 minutes at 37° C.) is reported as 8.2%.
Molecule `CC[C@@]1(c2ccccc2)C2=C(CC(C)(C)CC2=O)Nc2n[nH]cc21` [drawing 179] had a solubility (thermodynamic) at 18 h in [15] of 480 µM (≈ 154 µg/mL). In addition, the “Human Liver Microsomal Stability, % remaining” value in [1] (1 μM, 60 minutes at 37° C.) is on record as 95%. Moreover, the fraction unbound at 5 h, 5 μM in data set [3] was 0.212. Further, in [4] (setting [16]), the “Plasma Stability (Mouse, % remaining)” value is on record as 95.3%. Moreover, in [7] (1 μM, 60 minutes at 37° C.), the “Mouse Liver Microsomal Stability, % remaining” value was found to be 93%.
Consider `Cc1c[nH]c(-c2cnc(NCCNc3ccc(C#N)cn3)nc2-c2ccc(Cl)cc2Cl)n1` [drawing 180], for which the thermodynamic solubility at 18 h in [15] worked out at 116 µM (≈ 54 µg/mL). Besides, the “Human Liver Microsomal Stability, % remaining” value in [1] came to 3.0%. The fraction unbound at 5 h, 5 μM is 0.039 in data set [2] and 0.043 in data set [3]. The “Plasma Stability (Mouse, % remaining)” value in [4] was determined as 97.0%. Moreover, the “Plasma Stability (Human, % remaining)” value in [5] is reported as 100%. For the same molecule, in data set [7], the “Mouse Liver Microsomal Stability, % remaining” value amounted to 4.0%.
